Read-outs that look alike come from different tables or passages of the source.
How the values were obtained:
Test in all cases: Radiolabeled ATP kinase assay, panel of 371 kinases (Table S6)
Type in all cases: biochemical
[1] = target: T1, panel of 371 human kinases (Homo sapiens, UniProt Q6P3R8); conditions: NEK5; 0.1 μM; 10 μM ATP; read-out: % Enzyme Activity (relative to DMSO controls)
T1 construct: purchased Reaction Biology Corp
Text: (§1) ; FIG. 38C). […]. Further targeted analyses, such as genetic knock-down or knock-out, may be warranted to parse the role of these additional kinases in our model of neurodegeneration.

[2] = target: T2, panel of 371 human kinases (Homo sapiens, UniProt Q09013); conditions: DMPK; 0.1 μM; 10 μM ATP; read-out: % Enzyme Activity (relative to DMSO controls)
T2 construct: purchased Reaction Biology Corp
Text: as §1

[3] = target: T3, panel of 371 human kinases (Homo sapiens, UniProt Q00535); conditions: 0.1 μM, 10 μM ATP, read-out: % Enzyme Activity (relative to DMSO controls)
T3 construct: purchased Reaction Biology Corp
Text: as §1

[4] = target: T4, panel of 371 human kinases (Homo sapiens, UniProt Q13627); conditions: DYRK1/DYRK1A; 0.1 μM; 10 μM ATP; read-out: % Enzyme Activity (relative to DMSO controls)
T4 construct: purchased Reaction Biology Corp
Text: as §1

[5] = target: T5, panel of 371 human kinases (Homo sapiens, UniProt Q14164); conditions: IKKe/IKBKE; 0.1 μM; 10 μM ATP; read-out: % Enzyme Activity (relative to DMSO controls)
T5 construct: purchased Reaction Biology Corp
Text: as §1

[6] = target: T6, panel of 371 human kinases (Homo sapiens, UniProt P53350); conditions: PLK1; 0.1 μM; 10 μM ATP; read-out: % Enzyme Activity (relative to DMSO controls)
T6 construct: purchased Reaction Biology Corp
Text: as §1

[7] = target: T7, panel of 371 human kinases (Homo sapiens, UniProt Q9UKI8); conditions: TLK1; 0.1 μM; 10 μM ATP; read-out: % Enzyme Activity (relative to DMSO controls)
T7 construct: purchased Reaction Biology Corp
Text: as §1

[8] = target: T8, panel of 371 human kinases (Homo sapiens, UniProt O60674); conditions: JAK2; 0.1 μM; 10 μM ATP; read-out: % Enzyme Activity (relative to DMSO controls)
T8 construct: purchased Reaction Biology Corp
Text: as §1

[9] = target: T9, panel of 371 human kinases (Homo sapiens, UniProt P49761); conditions: CLK3; 0.1 μM; 10 μM ATP; read-out: % Enzyme Activity (relative to DMSO controls)
T9 construct: purchased Reaction Biology Corp
Text: as §1

[10] = target: T10, panel of 371 human kinases (Homo sapiens, UniProt P35916); conditions: FLT4/VEGFR3; 0.1 μM; 10 μM ATP; read-out: % Enzyme Activity (relative to DMSO controls)
T10 construct: purchased Reaction Biology Corp
Text: as §1

[11] = target: T11, panel of 371 human kinases (Homo sapiens, UniProt Q8N752); conditions: CK1a1L; 0.1 μM; 10 μM ATP; read-out: % Enzyme Activity (relative to DMSO controls)
T11 construct: purchased Reaction Biology Corp
Text: as §1

[12] = target: T12, panel of 371 human kinases (Homo sapiens, UniProt Q12866); conditions: c-MER; 0.1 μM; 10 μM ATP; read-out: % Enzyme Activity (relative to DMSO controls)
T12 construct: purchased Reaction Biology Corp
Text: as §1

[13] = target: T13, panel of 371 human kinases (Homo sapiens, UniProt P27361); conditions: ERK1; 0.1 μM; 10 μM ATP; read-out: % Enzyme Activity (relative to DMSO controls)
T13 construct: purchased Reaction Biology Corp
Text: as §1

[14] = target: T14, panel of 371 human kinases (Homo sapiens, UniProt Q00534); conditions: 0.1 μM, 10 μM ATP, read-out: % Enzyme Activity (relative to DMSO controls)
T14 construct: purchased Reaction Biology Corp
Text: as §1

[15] = target: T15, panel of 371 human kinases (Homo sapiens, UniProt P53667); conditions: LIMK1; 0.1 μM; 10 μM ATP; read-out: % Enzyme Activity (relative to DMSO controls)
T15 construct: purchased Reaction Biology Corp
Text: as §1

[16] = target: T16, panel of 371 human kinases (Homo sapiens, UniProt Q9Y243); conditions: AKT3; 0.1 μM; 10 μM ATP; read-out: % Enzyme Activity (relative to DMSO controls)
T16 construct: purchased Reaction Biology Corp
Text: as §1

[17] = target: T17, panel of 371 human kinases (Homo sapiens, UniProt P54760); conditions: EPHB4; 0.1 μM; 10 μM ATP; read-out: % Enzyme Activity (relative to DMSO controls)
T17 construct: purchased Reaction Biology Corp
Text: as §1

[18] = target: T18, panel of 371 human kinases (Homo sapiens, UniProt Q16288); conditions: TRKC; 0.1 μM; 10 μM ATP; read-out: % Enzyme Activity (relative to DMSO controls)
T18 construct: purchased Reaction Biology Corp
Text: as §1

[19] = target: T19, panel of 371 human kinases (Homo sapiens, UniProt P28482); conditions: ERK2/MAPK1; 0.1 μM; 10 μM ATP; read-out: % Enzyme Activity (relative to DMSO controls)
T19 construct: purchased Reaction Biology Corp
Text: as §1

[20] = target: T20, panel of 371 human kinases (Homo sapiens, UniProt O14578); conditions: STK21/CIT; 0.1 μM; 10 μM ATP; read-out: % Enzyme Activity (relative to DMSO controls)
T20 construct: purchased Reaction Biology Corp
Text: as §1

[21] = target: T21, panel of 371 human kinases (Homo sapiens, UniProt Q13043); conditions: MST1/STK4; 0.1 μM; 10 μM ATP; read-out: % Enzyme Activity (relative to DMSO controls)
T21 construct: purchased Reaction Biology Corp
Text: as §1

[22] = target: T22, panel of 371 human kinases (Homo sapiens, UniProt P19784); conditions: CK2a2; 0.1 μM; 10 μM ATP; read-out: % Enzyme Activity (relative to DMSO controls)
T22 construct: purchased Reaction Biology Corp
Text: as §1

[23] = target: T23, panel of 371 human kinases (Homo sapiens, UniProt O95747); conditions: OSR1/OXSR1; 0.1 μM; 10 μM ATP; read-out: % Enzyme Activity (relative to DMSO controls)
T23 construct: purchased Reaction Biology Corp
Text: as §1

[24] = target: T24, panel of 371 human kinases (Homo sapiens, UniProt P07333); conditions: FMS; 0.1 μM; 10 μM ATP; read-out: % Enzyme Activity (relative to DMSO controls)
T24 construct: purchased Reaction Biology Corp
Text: as §1

T14 sequence (Q00534 whole entry): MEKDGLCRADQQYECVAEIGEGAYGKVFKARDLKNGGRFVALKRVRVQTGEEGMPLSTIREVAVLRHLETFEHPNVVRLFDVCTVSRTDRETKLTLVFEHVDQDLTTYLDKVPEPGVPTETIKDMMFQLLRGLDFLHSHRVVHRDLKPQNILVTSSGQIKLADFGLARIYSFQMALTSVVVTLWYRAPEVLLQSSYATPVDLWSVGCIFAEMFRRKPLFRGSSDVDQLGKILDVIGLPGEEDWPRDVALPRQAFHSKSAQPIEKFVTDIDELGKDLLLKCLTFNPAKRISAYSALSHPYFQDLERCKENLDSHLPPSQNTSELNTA
T3 sequence (Q00535 whole entry): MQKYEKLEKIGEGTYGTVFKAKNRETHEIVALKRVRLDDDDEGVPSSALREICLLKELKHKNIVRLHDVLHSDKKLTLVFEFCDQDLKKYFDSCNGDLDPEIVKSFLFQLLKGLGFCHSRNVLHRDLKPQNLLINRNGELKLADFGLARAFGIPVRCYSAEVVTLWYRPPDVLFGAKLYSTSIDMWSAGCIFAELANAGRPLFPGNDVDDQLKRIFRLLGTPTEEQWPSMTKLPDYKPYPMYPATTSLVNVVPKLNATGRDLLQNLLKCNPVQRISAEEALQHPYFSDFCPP
T9 sequence (P49761 whole entry): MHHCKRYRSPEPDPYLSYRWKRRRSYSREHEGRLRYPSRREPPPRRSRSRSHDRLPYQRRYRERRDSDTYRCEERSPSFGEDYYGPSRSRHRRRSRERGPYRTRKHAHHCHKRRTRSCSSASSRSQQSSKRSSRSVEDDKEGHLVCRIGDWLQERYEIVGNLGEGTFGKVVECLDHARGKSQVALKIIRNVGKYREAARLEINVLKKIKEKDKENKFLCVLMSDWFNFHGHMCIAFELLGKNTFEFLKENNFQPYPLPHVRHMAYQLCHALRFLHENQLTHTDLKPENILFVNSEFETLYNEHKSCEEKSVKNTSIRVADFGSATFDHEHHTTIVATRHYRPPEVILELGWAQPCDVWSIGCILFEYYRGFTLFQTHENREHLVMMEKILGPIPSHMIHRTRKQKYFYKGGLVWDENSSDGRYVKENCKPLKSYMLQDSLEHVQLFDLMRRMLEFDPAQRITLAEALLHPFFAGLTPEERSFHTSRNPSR
T15 sequence (P53667 whole entry): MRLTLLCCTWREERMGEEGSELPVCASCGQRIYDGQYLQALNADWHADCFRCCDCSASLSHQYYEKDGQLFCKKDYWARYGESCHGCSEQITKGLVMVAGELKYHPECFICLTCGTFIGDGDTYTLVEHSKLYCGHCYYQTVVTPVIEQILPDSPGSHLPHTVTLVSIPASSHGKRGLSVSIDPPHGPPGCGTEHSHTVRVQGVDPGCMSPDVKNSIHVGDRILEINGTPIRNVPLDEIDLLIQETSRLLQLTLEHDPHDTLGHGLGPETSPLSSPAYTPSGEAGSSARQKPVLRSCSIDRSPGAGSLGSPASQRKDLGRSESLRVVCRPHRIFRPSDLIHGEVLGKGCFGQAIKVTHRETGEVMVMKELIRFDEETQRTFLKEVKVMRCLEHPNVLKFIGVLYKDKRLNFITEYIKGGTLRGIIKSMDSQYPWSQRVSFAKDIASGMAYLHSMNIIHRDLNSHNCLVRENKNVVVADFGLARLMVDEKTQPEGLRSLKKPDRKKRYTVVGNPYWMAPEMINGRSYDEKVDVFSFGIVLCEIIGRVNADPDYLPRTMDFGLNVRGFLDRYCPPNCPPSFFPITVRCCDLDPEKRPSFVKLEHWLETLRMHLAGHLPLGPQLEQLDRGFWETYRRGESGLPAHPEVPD
T6 sequence (P53350 whole entry): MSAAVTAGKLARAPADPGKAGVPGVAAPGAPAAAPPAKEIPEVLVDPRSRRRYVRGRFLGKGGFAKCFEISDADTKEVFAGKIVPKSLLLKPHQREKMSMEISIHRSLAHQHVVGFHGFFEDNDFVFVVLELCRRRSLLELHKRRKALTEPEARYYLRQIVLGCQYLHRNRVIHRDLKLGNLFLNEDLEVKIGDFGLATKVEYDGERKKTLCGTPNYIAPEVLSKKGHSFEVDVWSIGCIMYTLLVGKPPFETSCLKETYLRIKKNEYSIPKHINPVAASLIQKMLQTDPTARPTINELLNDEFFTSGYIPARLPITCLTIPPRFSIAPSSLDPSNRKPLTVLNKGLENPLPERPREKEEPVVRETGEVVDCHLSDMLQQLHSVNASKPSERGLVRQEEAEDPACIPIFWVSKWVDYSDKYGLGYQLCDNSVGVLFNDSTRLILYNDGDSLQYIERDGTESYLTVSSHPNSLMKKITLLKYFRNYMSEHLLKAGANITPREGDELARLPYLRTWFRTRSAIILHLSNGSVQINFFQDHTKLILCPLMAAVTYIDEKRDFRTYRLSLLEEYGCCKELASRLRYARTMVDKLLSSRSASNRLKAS
T19 sequence (P28482 whole entry): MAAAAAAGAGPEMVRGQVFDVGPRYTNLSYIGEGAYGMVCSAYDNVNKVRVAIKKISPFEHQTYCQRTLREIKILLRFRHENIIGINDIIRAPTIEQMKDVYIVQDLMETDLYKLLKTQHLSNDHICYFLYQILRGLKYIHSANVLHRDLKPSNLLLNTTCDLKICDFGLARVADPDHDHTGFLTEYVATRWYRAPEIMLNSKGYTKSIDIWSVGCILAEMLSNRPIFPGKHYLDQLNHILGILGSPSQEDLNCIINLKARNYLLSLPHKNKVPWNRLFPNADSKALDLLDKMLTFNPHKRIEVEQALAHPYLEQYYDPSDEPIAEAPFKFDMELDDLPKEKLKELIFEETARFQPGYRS
T2 sequence (Q09013 whole entry): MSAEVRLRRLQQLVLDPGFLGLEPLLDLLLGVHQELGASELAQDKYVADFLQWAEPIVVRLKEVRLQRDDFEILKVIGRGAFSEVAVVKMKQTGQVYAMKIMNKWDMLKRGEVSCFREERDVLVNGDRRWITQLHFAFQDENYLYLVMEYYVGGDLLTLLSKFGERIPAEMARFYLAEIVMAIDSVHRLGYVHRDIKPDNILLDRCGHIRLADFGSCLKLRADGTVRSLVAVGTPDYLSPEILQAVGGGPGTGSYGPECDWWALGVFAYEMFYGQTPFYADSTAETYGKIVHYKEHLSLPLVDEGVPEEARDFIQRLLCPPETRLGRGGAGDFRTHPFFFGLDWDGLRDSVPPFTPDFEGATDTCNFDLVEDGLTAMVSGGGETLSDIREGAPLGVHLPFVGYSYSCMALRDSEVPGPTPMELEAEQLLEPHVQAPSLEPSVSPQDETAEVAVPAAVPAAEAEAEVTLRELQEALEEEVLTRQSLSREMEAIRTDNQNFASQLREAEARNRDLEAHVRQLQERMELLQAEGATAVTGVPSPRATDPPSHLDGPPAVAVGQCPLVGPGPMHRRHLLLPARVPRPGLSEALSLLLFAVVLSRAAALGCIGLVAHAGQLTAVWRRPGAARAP
T7 sequence (Q9UKI8 whole entry): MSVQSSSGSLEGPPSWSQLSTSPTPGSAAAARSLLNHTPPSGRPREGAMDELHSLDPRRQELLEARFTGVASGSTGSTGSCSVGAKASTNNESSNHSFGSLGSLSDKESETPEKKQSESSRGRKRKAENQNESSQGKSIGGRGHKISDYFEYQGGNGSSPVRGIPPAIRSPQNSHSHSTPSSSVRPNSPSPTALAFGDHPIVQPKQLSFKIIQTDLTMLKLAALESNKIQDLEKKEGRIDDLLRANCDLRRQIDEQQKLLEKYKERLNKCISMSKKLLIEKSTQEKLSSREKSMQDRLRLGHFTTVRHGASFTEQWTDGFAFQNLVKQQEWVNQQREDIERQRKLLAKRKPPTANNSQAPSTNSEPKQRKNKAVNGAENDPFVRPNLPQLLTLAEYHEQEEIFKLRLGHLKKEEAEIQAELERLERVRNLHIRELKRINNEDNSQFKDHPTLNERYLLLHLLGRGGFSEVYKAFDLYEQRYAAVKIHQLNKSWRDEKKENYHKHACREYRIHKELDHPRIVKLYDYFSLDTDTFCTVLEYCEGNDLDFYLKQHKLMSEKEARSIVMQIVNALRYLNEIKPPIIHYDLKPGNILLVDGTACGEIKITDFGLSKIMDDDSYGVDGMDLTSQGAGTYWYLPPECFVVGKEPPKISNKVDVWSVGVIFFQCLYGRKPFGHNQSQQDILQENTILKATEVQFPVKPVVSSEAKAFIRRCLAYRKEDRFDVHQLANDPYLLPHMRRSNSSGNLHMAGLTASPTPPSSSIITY
T5 sequence (Q14164 whole entry): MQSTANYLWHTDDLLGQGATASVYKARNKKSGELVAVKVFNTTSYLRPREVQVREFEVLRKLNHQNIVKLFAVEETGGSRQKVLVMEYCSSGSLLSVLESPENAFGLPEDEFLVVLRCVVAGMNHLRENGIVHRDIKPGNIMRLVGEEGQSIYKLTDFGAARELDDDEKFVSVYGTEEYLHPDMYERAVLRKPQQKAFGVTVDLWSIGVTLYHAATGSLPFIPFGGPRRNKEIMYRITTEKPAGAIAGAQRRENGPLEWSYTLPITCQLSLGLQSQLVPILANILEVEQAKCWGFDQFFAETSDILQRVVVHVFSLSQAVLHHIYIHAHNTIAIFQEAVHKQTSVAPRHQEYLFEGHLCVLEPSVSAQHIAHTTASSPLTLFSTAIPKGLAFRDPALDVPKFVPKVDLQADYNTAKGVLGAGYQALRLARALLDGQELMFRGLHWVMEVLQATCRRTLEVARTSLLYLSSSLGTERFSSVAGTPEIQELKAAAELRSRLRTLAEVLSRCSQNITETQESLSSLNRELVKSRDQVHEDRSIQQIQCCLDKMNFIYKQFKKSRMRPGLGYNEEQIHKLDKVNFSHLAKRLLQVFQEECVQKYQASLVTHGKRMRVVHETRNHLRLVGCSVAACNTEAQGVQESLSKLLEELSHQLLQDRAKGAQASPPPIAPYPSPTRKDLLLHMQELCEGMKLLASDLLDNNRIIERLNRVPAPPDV

Compound | remaining activity at 0.1 µM [1] | remaining activity at 0.1 µM [2] | remaining activity at 0.1 µM ([3]; CDK5/p25) | remaining activity at 0.1 µM ([3]; CDK5/p35) | remaining activity at 0.1 µM [4] | remaining activity at 0.1 µM [5] | remaining activity at 0.1 µM [6] | remaining activity at 0.1 µM [7] | remaining activity at 0.1 µM [8] | remaining activity at 0.1 µM [9] | remaining activity at 0.1 µM [10] | remaining activity at 0.1 µM [11] | remaining activity at 0.1 µM [12] | remaining activity at 0.1 µM [13] | remaining activity at 0.1 µM ([14]; CDK6/cyclin D1) | remaining activity at 0.1 µM ([14]; CDK6/cyclin D3) | remaining activity at 0.1 µM [15] | remaining activity at 0.1 µM [16] | remaining activity at 0.1 µM [17] | remaining activity at 0.1 µM [18] | also measured
CN1CCN(Cc2ccc(-c3cnc4[nH]cc(-c5ccc6[nH]ccc6c5)c4c3)cc2)CC1 [Compound 1, 3-(1H-Indol-5-yl)-5-(4-((4-methylpiperazin-1-yl)methyl)phenyl)-1H-pyrrolo[2,3-b]pyridine, reference compound] | 87.1% | 96.6% | 79.7% | 81.3% | 52.4% | 82.5% | 98.6% | 102% | 90.2% | 95.3% | 81.7% | 94.8% | 81.2% | 86% | 63.1% | 92.2% | 112% | 98.4% | 91.6% | 19.4% | remaining activity at 0.1 µM [19]: 104%; remaining activity at 0.1 µM [20]: 103%; remaining activity at 0.1 µM [21]: 80%; remaining activity at 0.1 µM [22]: 84.3%; remaining activity at 0.1 µM [23]: 102%; remaining activity at 0.1 µM [24]: 85.4%
OCCN1CCN(Cc2ccc(-c3cnc4[nH]cc(-c5cccc(Cl)c5)c4c3)cc2)CC1 [Compound 12k, 2-(4-(4-(3-(3-Chlorophenyl)-1H-pyrrolo[2,3-b]pyridin-5-yl)benzyl)piperazin-1-yl)ethan-1-ol] | 92.4% | 97.7% | 75.9% | 79.2% | 40.7% | 63.8% | 100% | 102% | 93% | 91% | 85.8% | 107% | 75.1% | 92.8% | 30.7% | 68.2% | 103% | 97.2% | 97.5% | 52.2% | remaining activity at 0.1 µM [19]: 101%; remaining activity at 0.1 µM [20]: 104%; remaining activity at 0.1 µM [21]: 75.9%; remaining activity at 0.1 µM [22]: 89%; remaining activity at 0.1 µM [23]: 97.1%; remaining activity at 0.1 µM [24]: 26.8%

— US12227500B2, “Substituted pyrrolo[2,3-b]pyridines for suppressing toxic endoplasmic reticulum stress” (THE TRUSTEES OF COLUMBIA UNIVERSITY IN THE CITY OF NEW YORK, priority 2018, dated 2025)
